Source: patent publication EP2727596A1, “eEF2/eEF2K as therapeutic target for treating TNF-alpha-related diseases” (Fundación Centro Nacional de Investigaciones …, priority 2012, dated 2014)
“Also recorded” adds a separate entry of the source.

Tests used:
ERK = assay: MAPK pathway activity: ERK phosphorylation (immunoblot); type: in vivo; conditions: mice treated prior to LPS injection
Procedure: (§1) MKK3 and MKK6 are the main regulators of the α, β, γ and δ p38MAPK isoforms.
(§2) Tissue extracts were prepared using Triton lysis buffer (20 mM Tris [pH 7.4], 1% Triton X-100, 10% glycerol, 137mM NaCl, 2mM EDTA, 25mM β-glycerophosphate, 1 mM sodium orthovanadate, 1mM phenylmethylsulfonyl fluoride, and 10µg/mL aprotinin and leupeptin). Extracts (30µg protein) and immunoprecipitates (prepared from 2 mg protein) were examined by protein immunoblot analysis with antibodies to ERK1/2, phospho-ERK1/2, phospho-MKK3/6, p38α MAPK, phospho-p38, phospho-hsp27, phospho-JNK1/2, JNK1/2, caspase 3, cleaved caspase 3, cleaved PARP and phospho-eEF2 kinase (Ser366), all from Cell Signaling and MKK3 (Pharmingen), MKK6 (Stressgen), and GAPDH and eEF2 (Santa Cruz Biotechnology). The anti-p38γ and p38δ antibodies were raised against the peptides which correspond to the C termini of the proteins.

TNFα [1] = assay: serum TNFα in D-Gal+LPS-treated mice (inhibitors); type: in vivo
Excerpt: (§3) MKK3 and MKK6 are the main regulators of the α, β, γ and δ p38MAPK isoforms. […] The specific action of these inhibitors on MAPK pathway activity was firstly examined. […] No changes in ERK or JNK phosphorylation were observed.
(§4) Mkk3^-/- (B6.129-Map2k3^tm1Flv), Mkk6^-l- (B6.129-Map2k6^tm1Flv) were as previously described. p38γ (B6.129-Mapk12^tm1) and p38δ (B6.129-Mapk13^tm1) mice were crossed with B6.129P2-Lyz2tm1(cre)Ifo/J and back-crossed for ten generations to the C57BL/6J background (The Jackson Labs) and genotyped by PCR analysis of genomic DNA. Radiation chimeras were generated by exposing recipient mice to two doses of ionizing radiation ([…]) and reconstituting them with 2x10^7 donor bone marrow cells by injection into the tail vein. […] Specificity of the depletion of cell populations was determined by flow cytometry of blood samples collected during the experiment.
(§5) Serum activities of alanine transaminase (ALT) and aspartate aminotrasferase (AST) were measured using the ALT and AST Reagent Kit (Biosystems Reagents) with a Benchmark Plus Microplate Spectrophotometer. Serum concentrations of cytokines were measured by multiplexed ELISA with a Luminex 200 analyzer (Millipore).

[2] = clinical use; cited from earlier work
JNK = assay: MAPK pathway activity: JNK phosphorylation (immunoblot); type: in vivo; conditions: mice treated prior to LPS injection
Procedure: as §1, §2

IL6 = assay: serum IL6 in D-Gal+LPS-treated mice (inhibitors); type: in vivo
Excerpt: as §3, §4, §5

D-Gal+LPS-treated mice = assay: D-Gal+LPS-induced liver damage (hepatitis) in mice treated with p38 inhibitors; type: in vivo; conditions: WT mice, inhibitor i.p. 15mg/kg prior to LPS injection
Excerpt: as §3, §4
Serum activities of alanine transaminase (ALT) and aspartate aminotrasferase (AST) were measured using the ALT and AST Reagent Kit (Biosystems Reagents) with a Benchmark Plus Microplate Spectrophotometer. Serum concentrations of cytokines were measured by multiplexed ELISA with a Luminex 200 analyzer (Millipore). […]

[3] = system: association of eEF2 with Tnfα mRNA; assay: RNA-immunoprecipitation assay: eEF2 binding to Tnfα mRNA in RAW 264.7 cells; type: cell-based, Mouse; conditions: RAW 264.7 cells pretreated 10µM for 30 min before LPS (60min)
Procedure: (A-D) BM-derived macrophages from p38γ/δ^Lyz-KO and Lyzs-cre mice were treated with LPS (10µg/ml) or TNFα (20ng/ml). Data were analyzed by two-way ANOVA coupled to Bonferroni post-tests. • (A) ELISA of TNFα and IL-6 in supernatants. • (B) qRT-PCR of Tnfα and Il-6 mRNA normalized to Gapdh, • (C) Immunoblot of BM-derived macrophage (BMM) lysates. • (D) Flow cytometry of phospho-p38 in BM-derived macrophages stimulated with LPS and TNFα for 30 min. Intracellular phospho-p38 is depicted in blue; red corresponds to the isotype control. • (D-I) Cells were treated with LPS. Tnfα mRNA was detected by qRT-PCR in immunoprecipitates (1mg protein) obtained with anti-eEF2. mRNA amounts are expressed relative to the amount detected in control IgG immunoprecipitates. Data were analyzed by Student's t-test unless otherwise indicated. • (E) Tnfα mRNA in RAW 264.7 cell immunoprecipitates. • (F) Tnfα, Hif1α, and Il-6 mRNA in RAW 264.7 cell immunoprecipitates. […] Tnfα mRNA was measured in immunoprecipitates. • (G-H) Tnfα mRNA in immunoprecipitates of BM-derived macrophages from Lyzs-cre and 38γ/δ^Lyz-KO mice (G) or WT or ΔMKK3/6 mice (H) after stimulation (60min). eEF2 in immunoprecipitates was detected by immunoblot (upper panel).
To assess whether eEF2 controls TNFα elongation it was examined the binding of eEF2 to Tnfα mRNA in immunoprecipitates of mRNA-eEF2 complexes in RAW cells. […]

p38α/β = assay: MAPK pathway activity: phosphorylation of p38α substrate HSP27 (immunoblot); type: in vivo; conditions: mice treated prior to LPS injection
Procedure: as §1, §2

p38δ = molecular target: T1, p38δ (Mus musculus, UniProt Q9Z1B7); conditions: mice treated prior to LPS injection
T1 sequence (Q9Z1B7 1-366): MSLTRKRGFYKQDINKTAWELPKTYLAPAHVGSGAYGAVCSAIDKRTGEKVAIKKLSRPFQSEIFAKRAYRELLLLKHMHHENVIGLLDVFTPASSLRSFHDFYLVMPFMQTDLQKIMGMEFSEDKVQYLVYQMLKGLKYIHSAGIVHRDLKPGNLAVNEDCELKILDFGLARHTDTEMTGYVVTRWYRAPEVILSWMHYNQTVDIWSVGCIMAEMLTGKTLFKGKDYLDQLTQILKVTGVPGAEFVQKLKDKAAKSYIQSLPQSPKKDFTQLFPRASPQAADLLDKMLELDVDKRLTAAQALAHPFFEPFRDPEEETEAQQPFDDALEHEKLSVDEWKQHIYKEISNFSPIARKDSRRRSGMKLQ
Procedure: as §1, §2

TNFα [4] = conditions: healthy males; cited from earlier work

| Compound | ERK phosphorylation (ERK) | serum levels of TNFα (TNFα [1]) | liver enzyme elevations [2] | JNK phosphorylation (JNK) | serum levels of IL6 (IL6) | D-Gal+LPS-induced liver damage (hemorrhage, apoptosis and necrosis) (D-Gal+LPS-treated mice) | association of eEF2 with Tnfα mRNA [3] | inhibition of p38α/β (loss of phosphorylation of p38α substrate HSP27) (p38α/β) | inhibition of p38δ activation (suppression of phosphorylation of its substrate eEF2K) (p38δ) | inhibition of ex-vivo LPS-induced TNFα (TNFα [4]) |
| --- | --- | --- | --- | --- | --- | --- | --- | --- | --- | --- |
| Cc1ccc(-n2nc(C(C)(C)C)cc2NC(=O)Nc2ccc(OCCN3CCOCC3)c3ccccc23)cc1 [BIRB796] | No changes | reduced | some liver enzyme elevations | No changes | reduced | improves liver condition; also recorded: protected | abolished | efficiently inhibited |  |  |
| C[S+]([O-])c1ccc(-c2nc(-c3ccncc3)c(-c3ccc(F)cc3)[nH]2)cc1 (stereo not drawn) [SB203580] | No changes |  |  | No changes |  | intensifies; also recorded: exacerbated |  | efficiently inhibited | only BIRB796 was able to inhibit |  |
| Cn1c(NC[C@@H](N)Cc2ccccc2)nc(-c2ccncc2)c(-c2ccc3ccccc3c2)c1=O [AMG 548] |  |  | random liver enzyme elevations |  |  |  |  |  |  | > 85% |
